Test results: ChEMBL document CHEMBL3638467, “Aminomethyl quinolone compounds” (2013)

These compounds were tested against Mitogen-activated protein kinase 8 (Homo sapiens, UniProt P45983) (assay: In Vitro Enzyme Assay: In vitro JNK1 assay.).
Chain of Mitogen-activated protein kinase 8 (P45983 whole entry): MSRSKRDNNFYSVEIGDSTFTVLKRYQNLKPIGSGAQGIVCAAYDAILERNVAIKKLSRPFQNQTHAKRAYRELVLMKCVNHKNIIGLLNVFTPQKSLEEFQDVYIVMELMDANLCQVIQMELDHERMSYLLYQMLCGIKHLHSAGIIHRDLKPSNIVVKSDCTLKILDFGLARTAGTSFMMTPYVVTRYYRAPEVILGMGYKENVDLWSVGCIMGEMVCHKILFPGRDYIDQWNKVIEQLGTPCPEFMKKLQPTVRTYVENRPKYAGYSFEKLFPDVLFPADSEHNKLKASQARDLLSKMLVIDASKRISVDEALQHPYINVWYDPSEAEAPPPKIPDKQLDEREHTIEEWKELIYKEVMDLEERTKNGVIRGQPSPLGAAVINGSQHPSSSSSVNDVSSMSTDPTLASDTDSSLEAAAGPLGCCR

Point of comparison: `O=C(NCc1cn(-c2ccccc2F)c2cc(F)ccc2c1=O)c1cnn(-c2ccccc2)c1`, IC50 40 nM. Against it:
- CC(C)(O)CNC(=O)c1ccc(C(=O)NCc2cn(-c3ccccc3)c3cc(Cl)ccc3c2=O)cc1 — 5.5-fold higher, 220 nM
- COC(=O)c1c(CNC(=O)c2cnc(N3CCOCC3)s2)c(=O)c2ccc(Cl)cc2n1-c1ccccc1 — 5-fold lower, 8 nM
